The record followed here is patent US20170105960A1, “Prodrugs of Succinic Acid for Increasing ATP Production” (NEUROVIVE PHARMACEUTICAL AB, priority 2014, published 2017).

pIC50: −log10 of the molar value. “Also recorded” adds a separate entry of the source.

Data set [1] deals with intact human platelets. As to the kind of experiment: Intervention on rotenone- or metformin-induced lactate production with cell-permeable succinate prodrugs. Particulars: for effect on metformin-induced lactate production: 10 mM metformin, consecutive additions of 250 μM each 30 minutes; for effect on rotenone-induced lactate production: rotenone 2 μM, repeated additions of 250 μM each 30 minutes. Type of data set: cell-based. How it is done:
(§1) Lactate levels are determined every 2 h using the Lactate Pro™ 2 blood lactate test meter (Arkray, Alere AB, Lidingö, Sweden) or similar types of measurements. Incubation is performed at 37° C. pH is measured at start, after 4 and after 8 h (or more frequently) of incubation using a Standard pH Meter, e.g. PHM210 (Radiometer, Copenhagen, Denmark). Drug candidates are added to the assay from start or following 30-60 min at concentrations within the range 10 μM-5 mM. […] In order to evaluate the specificity of the drug candidate, it is also tested in combination with a down-stream inhibitor of respiration such as the complex III inhibitor Antimycin at 1 μg/mL, which should abolish the effect of the drug candidate and restore the production of lactate. The use of antimycin is therefore also a control for undue effects of drug candidates on the lactate producing ability of the cells used in the assay.
Lactate levels were measured in intervals of 30 min with the onset of the experiment.

In data set [2] the test system is intact cells. As to the kind of experiment: Assays exemplified for enhancement of mitochondrial energy producing function (not specified which). The format is cell-based, human. How it is done:
An increase in respiration rate in the described protocol is tightly coupled to ATP synthesis by oxidative phosphorylation unless cells are uncoupled (i.e. proton leak without production of ATP). Uncoupling is tested for by addition of the ATP synthase inhibitor oligomycin (1-2 μg mL^−1) in a protocol 3 where the extent of uncoupling corresponds to the respiratory rate following oligomycin addition. In the second protocol the same buffer is used as described above. […] In the third protocol, the same buffer as described above is used. […] Subsequently, the ATP-synthase-inhibitor Oligomycin is added. A reduction in respiration is a measure of how much of the oxygen consumption that is coupled to ATP synthesis. No, or only a slight, reduction indicate that the compound is inducing a proton leak over the inner mitochondrial membrane. The uncoupler FCCP is then titrated to induce maximum uncoupled respiration. […] The experiment is terminated by the addition of 1 μg/mL of the complex III inhibitor Antimycin to measure non-mitochondrial oxygen consumption. Intact human blood cells are incubated in plasma from the same donor. […] The experiment is terminated by addition of Antimycin at final concentration 1 μg/mL and any residual non-mitochondrial oxygen consumption is measured.

The next data set deals with intact PBMCs. In words: Lactate release of intact PBMCs. Type of data set: cell-based, human. The following applies: 10 mM metformin, data not shown.
Data set [3] deals with intact human platelets. As to the kind of experiment: Mitochondrial respiration in intact human platelets (respirometry). The following applies: for routine respiration change after 60 min: compared to first measurement after addition. Type of data set: cell-based. How it is done:
(§2) Lactate production of intact human platelets was determined in PBS containing 10 mM glucose.
Routine respiration was followed for 60 min at 37° C. before the ATP-synthase inhibitor oligomycin (1 μg mL^−1) was added to assess LEAK respiration. Maximal uncoupled respiratory electron transport system capacity supported by endogenous substrates (ETS) was reached by titration of FCCP.

The test system of data set [4] is permeabilized human peripheral blood mononuclear cells. In words: Mitochondrial respiration in permeabilized human PBMCs (respirometry). Particulars: PBMC, read-out: IC50 (OXPHOSCI respiration). Type of data set: cell-based.
Method: Real-time respirometric measurements were performed using high-resolution oxygraphs (Oxygraph-2k, Oroboros Instruments, Innsbruck, Austria). The experimental conditions during the measurements were the following: 37° C., 2 mL active chamber volume and 750 rpm stirrer speed. […] Settings, daily calibration and instrumental background corrections were conducted according to the manufacturer's instructions. […] All measurements were performed at a platelet concentration of 200×10^6 cells per mL or a PBMC concentration of 5×10^6 cells per mL. […] Maximal uncoupled respiratory electron transport system capacity supported by convergent input through complex I and […] ) was evaluated by subsequent titration with the protonophore carbonyl-cyanide p-(trifluoromethoxy) phenylhydrazone (FCCP). […] The complex III inhibitor antimycin (1 μg mL^-1) was then given to reveal residual oxygen consumption (ROX). […] Complex IV activity was calculated by subtracting the sodium azide value from the TMPD value. With exception of complex IV activity, all respiratory states were measured at steady-state and corrected for ROX. Complex IV activity was measured after ROX determination and not at steady-state.
Data set [5] concerns intact cells. As to the kind of experiment: Screening assay 2: enhancement and inhibition of mitochondrial energy producing function in intact cells (FCCP uncoupled). The following applies: for Convergent (FCCP): increase in mitochondrial oxygen consumption, screening assay 2, uncoupled conditions; for Toxicity: lowest concentration during compound titration at which a decrease in oxygen consumption is seen, screening assay 2. Details: key to Convergent (FCCP): The response in each parameter is graded either +, ++ or +++ in increasing order of potency; The response in each parameter is graded either +, ++ or +++ in increasing order of potency; The response in each parameter is graded either +, ++ or +++ in increasing order of potency; (+): Brackets [( )] indicate an intermediate effect, i.e. (+++) is between ++ and +++. The format is cell-based, human. As to the method:
(§3) Measurement of mitochondrial respiration is performed in a high-resolution oxygraph (Oxygraph—2k, Oroboros Instruments, Innsbruck, Austria) at a constant temperature of 37° C. Isolated human platelets, white blood cells, fibroblasts, human heart muscle fibers or other cell types containing live mitochondria are suspended in a 2 mL glass chamber at a concentration sufficient to yield oxygen consumption in the medium of ≧10 pmol O2 s^−1 mL^−1.
In the second protocol the same buffer is used as described above. After basal respiration is established, the mitochondrial uncoupler FCCP is added at a concentration of 2 nM to increase metabolic demand.

Data set [6] concerns cells with inhibited respiratory complex I. As to the kind of experiment: Screening assay 1: enhancement of mitochondrial energy producing function in cells with inhibited respiratory complex I. Type of data set: cell-based, human. Details: key: The response in each parameter is graded either +, ++ or +++ in increasing order of potency; The response in each parameter is graded either +, ++ or +++ in increasing order of potency; The response in each parameter is graded either +, ++ or +++ in increasing order of potency; (+): Brackets [( )] indicate an intermediate effect, i.e. (+++) is between ++ and +++. The following applies: increase in mitochondrial oxygen consumption in cells with inhibited complex I. As to the method:
as §3
Cells are placed in a buffer containing 110 mM sucrose, HEPES 20 mM, taurine 20 mM, K-lactobionate 60 mM, MgCl2 3 mM, KH2PO4 10 mM, EGTA 0.5 mM, BSA 1 g/l, pH 7.1. […] Compounds dissolved in DMSO are titrated in a range of 10 μM to 10 mM final concentration. Subsequently, cell membranes are permeabilised with digitonin (1 mg/1*10^6 plt) to allow entry of extracellularly released energy substrate or cell impermeable energy substrates. After stabilized respiration, Succinate 10 mM is added as a reference to enable respiration downstream of complex I. After the respiration stabilized the experiment is terminated by addition of Antimycin at final concentration 1 μg/mL and any residual non-mitochondrial oxygen consumption is measured. An increase in respiration rate in the described protocol is tightly coupled to ATP synthesis by oxidative phosphorylation unless cells are uncoupled (i.e. proton leak without production of ATP). […]

Data set [7] concerns Intact human blood cells with inhibited complex I. As to the kind of experiment: Screening assay 4: enhancement of mitochondrial energy producing function in cells with inhibited respiratory complex I in human plasma. Type of data set: cell-based. The following applies: increase in mitochondrial oxygen consumption. Details: key: The response in each parameter is graded either +, ++ or +++ in increasing order of potency; The response in each parameter is graded either +, ++ or +++ in increasing order of potency; The response in each parameter is graded either +, ++ or +++ in increasing order of potency; (+): Brackets [( )] indicate an intermediate effect, i.e. (+++) is between ++ and +++. As to the method:
as §3
Intact human blood cells are incubated in plasma from the same donor. […] Compounds dissolved in DMSO are titrated in a range of 10 μM to 10 mM final concentration. The experiment is terminated by addition of Antimycin at final concentration 1 μg/mL and any residual non-mitochondrial oxygen consumption is measured.

Data set [8] concerns intact cells. In words: Screening assay 3: assay to assess uncoupling in intact cells (high-resolution respirometry). The format is cell-based, human. Details: key: The response in each parameter is graded either +, ++ or +++ in increasing order of potency; The response in each parameter is graded either +, ++ or +++ in increasing order of potency; The response in each parameter is graded either +, ++ or +++ in increasing order of potency; (+): Brackets [( )] indicate an intermediate effect, i.e. (+++) is between ++ and +++. The following applies: for Convergent (Routine): increase in mitochondrial oxygen consumption induced by the compound, screening assay 3, 1 mM compound; for Uncoupling: level of oxygen consumption after addition of oligomycin, screening assay 3. As to the method: In the third protocol, the same buffer as described above is used. […] Subsequently, the ATP-synthase-inhibitor Oligomycin is added. A reduction in respiration is a measure of how much of the oxygen consumption that is coupled to ATP synthesis. No, or only a slight, reduction indicate that the compound is inducing a proton leak over the inner mitochondrial membrane. The uncoupler FCCP is then titrated to induce maximum uncoupled respiration. […] The experiment is terminated by the addition of 1 μg/mL of the complex III inhibitor Antimycin to measure non-mitochondrial oxygen consumption.

The subject of data set [9] is permeabilized human platelets. How it is done: as §2
Subsequently the FADH2-linked substrate succinate (10 mM) was given to determine convergent complex I- and II-dependent OXPHOS capacity (OXPHOSCI+II). […] Finally, the artificial complex IV substrate N,N,N′,N′-tetramethyl-p-phenylenediamine dihydrochloride (TMPD, 0.5 mM) was added and the complex IV inhibitor sodium azide (10 mM) was given to measure complex IV activity and chemical background, respectively.

Data set [10] concerns intact human platelets. As to the kind of experiment: Lactate production and pH of intact human platelets. Type of data set: cell-based. The following applies: metformin 1 and 10 mM, phenformin 0.5 mM, rotenone 2 μM. How it is done: as §1
Incubation was performed at 37° C. at a stirrer speed of 750 rpm, and pH was measured at start, after 4 and after 8 h of incubation (n=4) using a PHM210 Standard pH Meter (Radiometer, Copenhagen, Denmark).

Setting [11] is: 10 mM metformin plus prodrug, 250 μM each 30 minutes.

Consider `CC(=O)OCOC(=O)CCC(=O)OC(C)OC(C)=O` (stereo not shown) [NV241], for which the “rate of lactate production” value with intact human platelets [1] (setting [11]) is 0.43 mmol lactate (200·10^9 trc·h)^−1. Further, in the data set with intact human platelets [1], the “effect on metformin-induced lactate production” value is reported as “significantly decreased” and the “effect on rotenone-induced lactate production” value was “attenuated”.
In the case of `COC(=O)CCC(=O)OC` [dimethyl succinate], the “activity in the assays exemplified” value in the data set on intact cells [2] is “inactive”.
Consider `CC(=O)OCOC(=O)CCC(=O)OCOC(C)=O` [NV118], for which the “rate of lactate production” value with intact human platelets [1] (setting [11]) is 0.43 mmol lactate (200·10^9 trc·h)^−1. In the data set with intact human platelets [1], the “effect on metformin-induced lactate production” value was “significantly decreased” and the “effect on rotenone-induced lactate production” value is on record as “attenuated”.
Regarding `CN(C)C(=N)N=C(N)N` [metformin], the lactate release entry in the data set with intact PBMCs is given as “increased lactate release”. The figures for the “routine respiration change after 60 min” value in the data set with intact human platelets [3] (1 mM), with intact human platelets [3] (10 mM) and in the data set with intact human platelets [3] (100 mM) were −17.27%, −28.61% and −81.78%, respectively. In the data set on intact human platelets [3] (1 mM, whole blood incubated over 18 h before platelet isolation), the “routine respiration reduction after whole blood incubation” value worked out at 30.49%. The “routine respiration change after 15 min compared to control” value with intact human platelets [3] (100 mM, 15 min of exposure) was −39.77%. The pIC50 in [4] was 3.35.
In the case of `CC(=O)OC(CCCOC(=O)CCC(=O)O)OC(=O)CCC(=O)O` (stereo not shown) [01-134], in the data set on intact cells [5], the “Convergent (FCCP)” value is on record as “(+)” and the Toxicity came to 10 mM. The CII entry in data set [6] is recorded as “(+)”. Besides, the “CII (plasma)” value in data set [7] is listed as “(+)”. Further, in the data set on intact cells [8], the “Convergent (Routine)” value was “++” and the Uncoupling entry is recorded as “(+)”.
Turning to `O=C(O)CCC(=O)O` [succinate, reference compound], the “effect on metformin-induced lactate production” value with intact human platelets [1] is on record as “did not reduce the metformin-induced production of lactate; also recorded: did not change this”.
Take `CCOC(=O)CCC(=O)OCC` [Diethyl succinate]: the “activity in the assays exemplified” value in the data set with intact cells [2] was “inactive”.
`[H]/N=C(/N)N/C(=N/[H])NCCc1ccccc1` [phenformin]: the “ETSCII capacity and complex IV activity” value in [9] (compared to controls) is “not ETSCII or respiration specific to complex IV”. Further, the “fold more potent inhibition of OXPHOSCI than metformin” value in [9] (phenformin versus metformin) was 20 fold. The pIC50 in [9] (read-out: IC50 (OXPHOSCI respiration), complex I substrates) is 4.24. Moreover, the “lactate production over 8 h compared to control” value in the data set with intact human platelets [10] is reported as “significantly more lactate”.
Take `CC(=O)OC(CCCN1C(=O)c2ccccc2C1=O)OC(=O)CCC(=O)O` (stereo not shown) [01-150, 4-(1-acetoxy-4-(1,3-dioxoisoindolin-2-yl)butoxy)-4-oxobutanoic acid]: in the data set with intact cells [5], the “Convergent (FCCP)” value was “+” and the Toxicity came to 2 mM. Besides, the CII entry in data set [6] is “++”. The “CII (plasma)” value in data set [7] is given as “(+)”. Further, in the data set on intact cells [8], the “Convergent (Routine)” value is “+++” and the Uncoupling entry is “(+)”.
Take `CC(=O)OC(C)OC(=O)CCC(=O)OC(C)OC(C)=O` (stereo not shown) [NV189]: the “rate of lactate production” value with intact human platelets [1] (setting [11]) is given as 0.55 mmol lactate (200·10^9 trc·h)^−1. Further, in the data set on intact human platelets [1], the “effect on metformin-induced lactate production” value is “significantly decreased” and the “effect on rotenone-induced lactate production” value is “attenuated; also recorded: brought back to normal”. In addition, in the data set with intact human platelets [1] (rotenone 2 μM plus antimycin 1 μg/mL plus prodrug), the “rate of lactate production” value was 0.89 mmol lactate (200·10^6trc·h)^−1.
Take `COC(=O)CCC(=O)O` [monomethyl succinate]: in the data set with intact cells [2], the “activity in the assays exemplified” value was “inactive”.
